≈ marks a conversion by molar mass, not a printed value.
Experiments:
[1] = Inhibition of porcine cytosolic phospholipase A2 alpha using SAPC and 2-dioleoyl-sn-glycerol as substrate incubated for 60 mins by HPLC-UV analysis; design: species or system Sus scrofa
[2] = Metabolic stability in rat liver S9 fraction assessed as parent compound remaining at 20 uM incubated for 30 mins in presence of NADPH by HPLC-MS analysis; type: ADME, subcellular; settings: read-out: Stability
[3] = Metabolic stability in rat liver S9 fraction assessed as parent compound remaining at 5 uM incubated for 30 mins in presence of UDPGA by HPLC-MS analysis; type: ADME, subcellular; settings: read-out: Stability
[4] = Partition coefficient,logP of compound by reversed-phase HPLC analysis; type: physicochemical; settings: octanol/water
[5] = Drug concentration in C57Bl/6 mouse plasma at 30 mg/kg,po observed after 2 hrs by HPLC-MS analysis; type: ADME, organism-based
[6] = Permeability across apical to basolateral side in human Caco-2 cells at 10 uM incubated for 2 hrs by HPLC-MS analysis; type: ADME, cell-based; settings: caco-2, 2 h
Sus scrofa = organism: Sus scrofa; assay: Inhibition of porcine cytosolic phospholipase A2 alpha using SAPC and 2-dioleoyl-sn-glycerol as substrate at 10 uM incubated for 60 mins by HPLC-UV analysis
[7] = Kinetic solubility of compound in PBS at pH 7.4 incubated for 24 hrs by HPLC-UV analysis; type: physicochemical; settings: read-out: Kinetic_solubility
[8] = Thermodynamic solubility of the compound in PBS at pH 7.4 incubated for 20 hrs by HPLC-UV analysis; type: physicochemical; settings: read-out: Therm_solubility
[9] = Apparent permeability across apical to basolateral side in human Caco-2 cells at 10 uM incubated for 2 hrs by HPLC-MS analysis; type: ADME, cell-based

Row | Compound | IC50 [1] | remaining at 0.5 h, 20 µM [2] | remaining at 0.5 h, 5 µM [3] | logP [4] | further results
1 | CC(C)C(=O)c1cn(CC(=O)COc2ccc(Oc3ccccc3)cc2)c2ccc(C(=O)O)cc12 | 12 nM |  |  |  | 
2 | CCCCCCCCc1ccc(OCC(=O)Cn2cc(CCCC(=O)O)c(C(=O)C(C)C)c2)cc1 | 450 nM | 25% | > 90% |  | 
3 | CC(C)C(=O)c1cn(CC(=O)COc2ccc(Oc3ccc(C(F)(F)F)cc3)cc2)cc1CCC(=O)O | 82 nM | < 5% | > 90% | 4 | 
4 | CCCCCCCCc1ccc(OCC(O)Cn2cc(CCC(=O)O)c(C(=O)C(C)C)c2)cc1 (stereo not drawn) |  |  |  |  | concentration at 2 h [5]: 50 ng/mL; permeability [6]: Permeable
5 | CCCCCCCCc1ccc(OCC(=O)Cn2c(C)c(CCC(=O)O)c(C(=O)C(C)C)c2C)cc1 | > 10000 nM | 39% | > 90% |  | inhibition (Sus scrofa): 45%
6 | CCCCCCCCc1ccc(OCC(=O)C(C)n2cc(CCC(=O)O)c(-c3nc(C)no3)c2)cc1 (stereo not drawn) | 1 nM | 43% | > 90% | 6.1 | 
7 | CC(C)C(=O)c1cn(CC(=O)COc2ccc(C34CC5CC(CC(C5)C3)C4)cc2)cc1CCC(=O)O | 51 nM | 20% | > 90% | 5.6 | 
8 | CC(C)C(=O)c1cn(CC(=O)COc2ccc3c(ccn3-c3ccc(F)cc3)c2)cc1CCC(=O)O | 310 nM | < 5% | > 90% | 3.3 | 
9 | CCCCCCCCCCOc1ccc(OCC(=O)COc2ccc(C(=O)O)cc2)cc1 | 6.5 nM |  |  |  | 
10 | CCCCCCCCc1ccc(OCC(=O)Cn2cc(CC(=O)O)c(C(=O)C(C)C)c2)cc1 | 40 nM | 25% | > 90% |  | 
11 | Cc1noc(-c2cn(CC(=O)C(C)Oc3ccc(Oc4ccc(F)cc4)cc3)cc2CCC(=O)O)n1 (stereo not drawn) | 32 nM | 15% | > 90% | 3.3 | 
12 | CCCCCCCCc1ccc(OCC(=O)Cn2cc(CCC(=O)O)c(C(=O)C(C)C)c2)cc1 | 53 nM | 54% | > 90% | 6.3 | solubility kinetic at 24 h [7]: 174 µg/mL (≈ 371 µM)
13 | CCCCCCCCc1ccc(OCC(=O)Cn2cc(-c3nc(C)no3)c3cc(C(=O)O)ccc32)cc1 | 15 nM | 30% | < 5% |  | 
14 | Cc1noc(-c2cn(CC(=O)C(C)Oc3ccc(Oc4ccc(C(F)(F)F)cc4)cc3)cc2CCC(=O)O)n1 (stereo not drawn) | 16 nM | 30% | > 90% | 4.1 | permeability [6]: Permeable
15 | COc1ccc2c(c1)c(CC(=O)O)c(C)n2C(=O)c1ccc(Cl)cc1 [INDOMETHACIN] |  |  |  |  | Papp A→B at 2 h, 10 µM [9]: 18 ×10⁻⁶ cm/s

The next lines start with results.

Row | IC50 [1] | remaining at 0.5 h, 20 µM [2] | remaining at 0.5 h, 5 µM [3] | logP [4] | Compound | further results
16 | 38 nM | 21% | > 90% | 3.9 | Cc1noc(-c2cn(CC(=O)C(C)Oc3ccc(Oc4ccc(Cl)cc4)cc3)cc2CCC(=O)O)n1 (stereo not drawn) | 
17 | 460 nM | 60% | > 90% |  | CCCCCCCCc1ccc(OCC(=O)Cn2cc(C(=O)C(C)C)cc2CCC(=O)O)cc1 | solubility kinetic at 24 h [7]: ≥ 250 µg/mL; solubility thermodynamic at 20 h [8]: 394 µg/mL (≈ 839 µM); concentration at 2 h [5]: 220 ng/mL; permeability [6]: Impermeable
18 | 170 nM | 34% | > 90% | 4 | CC(C)C(=O)c1cn(CC(=O)COc2ccc(-c3ccc(C(F)(F)F)cc3)cc2)cc1CCC(=O)O | 
19 |  | 28% | 32% |  | COc1cccc2c1C(=O)c1c(O)c3c(c(O)c1C2=O)C[C@@](O)(C(C)=O)C[C@@H]3O[C@H]1C[C@H](N)[C@H](O)[C@H](C)O1 [DAUNORUBICIN] | 
20 | 10 nM |  |  |  | CCCCCCCCc1ccc(OCC(=O)Cn2cc(C(=O)C(C)C)c3cc(C(=O)O)ccc32)cc1 | 
21 | 650 nM | 59% | > 90% |  | CCCCCCCCc1ccc(OCC(=O)Cn2cc(C(=O)C(C)C)cc2CCCC(=O)O)cc1 | 
22 | 13 nM | 62% | > 90% | 6.5 | CCCCCCCCc1ccc(OC(C)C(=O)Cn2cc(CCC(=O)O)c(-c3nc(C)no3)c2)cc1 (stereo not drawn) | solubility kinetic at 24 h [7]: 10 µg/mL (≈ 20.2 µM)
23 | 1 nM | 34% | > 90% | 5.9 | CCCCCCCCc1ccc(OCC(=O)Cn2cc(CCC(=O)O)c(-c3nc(C)no3)c2)cc1 | 

— ChEMBL document CHEMBL5236626, “Synthesis and pharmacokinetic properties of novel cPLA2α inhibitors with 1-(carboxyalkylpyrrolyl)-3-aryloxypropan-2-one structure” (Bioorg Med Chem, 2023)
